Source: article PMC8025741 (Journal of medicinal chemistry, 2020)
“Also recorded” adds a separate entry of the source. Structures can show the parent of a compound that is named as a salt. Where two headings read alike, the source gives them in different places.

Tests used:
[1] = system: 5XFAD mice; experiment: fear conditioning test in 5XFAD mice; format: in vivo, mouse; conditions: 5XFAD mice at 8 months, 10 mg/kg ip daily for 5 months, listed as 1 (PDDC)
[2] = in vitro metabolic stability, human liver microsomes; conditions: pH 7.4
[3] = stability studies and metabolite identification in mice and human microsomes; conditions: for metabolic stability (in words): mice and human microsomes
[4] = cited from earlier work
[5] = cited from earlier work; remark: listed apart in the source

metabolic stability (in words) [3]	SMILES	also measured
reasonable metabolic stability	CC(=O)N[C@@H]1CCN(c2cc(C)nn3c(-c4ccc(OC(F)(F)F)cc4)c(C)nc23)C1 [Compound 47, (R)-N-(1-(2,6-Dimethyl-3-(4-(trifluoromethoxy)-phenyl)imidazo[1,2-b]pyridazin-8-yl)pyrrolidin-3-yl)acetamide]	
generally stable	COc1ccc(-c2c(C)nc3c(N4CC[C@@H](NC(=O)C(F)(F)F)C4)cc(C)nn23)cc1OC [Compound 52, (R)-N-(1-(3-(3,4-Dimethoxyphenyl)-2,6-dimethylimidazo[1,2-b]pyridazin-8-yl)pyrrolidin-3-yl)-2,2,2-trifluoroacetamide]	
generally stable	CCCCCC(=O)N[C@@H]1CCN(c2cc(C)nn3c(-c4ccc(OC)c(OC)c4)c(C)nc23)C1 [Compound 53, (R)-N-(1-(3-(3,4-Dimethoxyphenyl)-2,6-dimethylimidazo[1,2-b]pyridazin-8-yl)pyrrolidin-3-yl)hexanamide Hydrochloride]	
generally stable	COc1ccc(-c2c(C)nc3c(N4CC[C@@H](NC(=O)Nc5ccccc5)C4)cc(C)nn23)cc1OC [Compound 59, (R)-1-(1-(3-(3,4-Dimethoxyphenyl)-2,6-dimethylimidazo[1,2-b]pyridazin-8-yl)pyrrolidin-3-yl)-3-phenylurea]	
metabolically unstable	COc1ccc(-c2c(C)nc3c(N4CCCC4)cc(C)nn23)cc1OC [Compound 76c, 3-(3,4-Dimethoxyphenyl)-2,6-dimethyl-8-(pyrrolidin-1-yl)imidazo[1,2-b]pyridazine]	

Further lines, the compound ahead of its results:

SMILES	metabolic stability (in words) [3]	also measured
COc1ccc(-c2c(C)nc3c(N4CC[C@@H](NC(=O)Oc5ccccc5)C4)cc(C)nn23)cc1OC [Compound 1, Phenyl(R)-(1-(3-(3,4-Dimethoxyphenyl)-2,6-dimethylimidazo[1,2-b]pyridazin-8-yl)pyrrolidin-3-yl)carbamate]	generally stable	contextual fear memory (freezing, day 2) [1]: performed like WT controls; remaining at 1 h, 1 µM [2]: 103 ± 14%; metabolite identification (MET-ID) ([3]; human and mouse liver microsomes, Figure S1): O-demethylated metabolite
COc1ccc(-c2c(C)nc3c(N4CC[C@@H](NS(=O)(=O)C5CC5)C4)cc(C)nn23)cc1OC [Compound 66, (R)-N-(1-(3-(3,4-Dimethoxyphenyl)-2,6-dimethylimidazo[1,2-b]pyridazin-8-yl)pyrrolidin-3-yl)cyclopropanesulfonamide]	generally stable; also recorded: completely stable	
COc1ccc(-c2c(C)nc3c(N4CC[C@@H](NS(=O)(=O)c5cccs5)C4)cc(C)nn23)cc1OC [Compound 73, (R)-N-(1-(3-(3,4-Dimethoxyphenyl)-2,6-dimethylimidazo[1,2-b]pyridazin-8-yl)pyrrolidin-3-yl)thiophene-2-sulfonamide]	generally stable; also recorded: completely stable	
COc1cc(-c2nc(-c3cccs3)c(-c3ccccc3)[nH]2)cc(OC)c1O [DPTIP]		oral bioavailability (in words) [4]: not orally bioavailable; brain penetration (in words) ([4]; vs PDDC): poor brain penetration
O=c1[nH]c(=S)[nH]c(-c2ccccc2)c1Cc1c(O)ccc2ccccc12 [cambinol]		metabolic stability (in words) [5]: poor metabolic stability
